Consider three compounds from US20030044380A1, “Adhesive including medicament” (priority 2001, published 2003).

The nature of data set [1]: Solubility in formaldehyde acetone crosslinking solution. In kind it is physicochemical. The source says:
While not wishing to be limited to any particular mechanism, it is believed that the crosslinking step accounts, in part, for the encapsulation efficiency.

The nature of data set [2]: Direct blending of unencapsulated medicament with cyanoacrylic ester (storage stability). In kind it is physicochemical. As to the method: Adhesive formulations including unencapsulated antibiotics were investigated. The medicaments were vacuum dried for 6 hours at room temperature in the presence of phosphorous pentoxide to remove the residual water. Direct blending of the medicaments with cyanoacrylic ester was conducted in a drying chamber protected by a high-purity nitrogen atmosphere.

The nature of data set [3]: Release of medicament from solidified adhesive film into physiologic saline. In kind it is physicochemical. The note with it: extract in physiologic saline, UV spectroscopy.
Procedure: Samples of adhesive containing either encapsulated Penicillin G or unencapsulated Penicillin G were prepared as described above. Solidification of the adhesives was carried out in moist air so as to provide an accelerated solidification rate. The solidified adhesives having a thickness of about 1 mm were cut into small pieces which were immersed in physiologic saline at room temperature. The aqueous extracts were examined using UV spectroscopy.
The nature of data set [4]: Stability of medicament in aqueous solution or extract (UV, HPLC). The note with it: physiologic saline or aqueous solution.
Source text: Because the UV spectra of DSP and the extractive aqueous solution of Super Glue™ have overlapped absorptions at 240 nm, the release behavior of cyanoacrylate adhesives containing DSP microcapsules was studied by HPLC instead of UV spectroscopy.

Consider `COc1c(N2CCNC(C)C2)c(F)cc2c(=O)c(C(=O)O)cn(C3CC3)c12` (stereo not drawn) [Gatifloxacin], for which the “solubility in a formaldehyde acetone solution” value in data set [1] is “relatively weak solubility”. Besides, the “time to solidification after direct mixing” value in data set [2] (methyl cyanoacrylate (Super Glue) with dry powder, room temperature) was “about 3 hours”.

`CC1(C)S[C@@H]2[C@H](NC(=O)Cc3ccccc3)C(=O)N2[C@H]1C(=O)[O-].[Na+]` [Penicillin G, Penicillin G Sodium Salt]: the “release from solidified adhesive film” value in data set [3] is listed as “no detectable release”. Moreover, the “stability in aqueous solution / aqueous extract” value in data set [4] is given as “observed to decompose during the release process”. For the same compound, the “observation on direct mixing with Super Glue” value in data set [2] (unencapsulated medicament) is “Agglomeration was observed”.

On to `Nc1ccc(S(N)(=O)=O)cc1` [Sulfanilamide, Sulfanilamidum Crystallinum Sterile], for which the “shelf life of cyanoacrylate adhesives in the presence of unencapsulated medicament” value in data set [2] (direct blending under nitrogen) is on record as “more than 24 hours”.
